According to US20230217926A1, “SELECTIVE HERBICIDES BASED ON SUBSTITUTED ISOXAZOLIN CARBOXAMIDES AND ISOXADIFEN-ETHYL” (BAYER AKTIENGESELLSCHAFT, priority 2020, published 2023):

Legend:
ZEAMA Abraxas = assay: Tank-mix post-emergence crop damage, greenhouse, visual assessment; assay type: in vivo, maize; set-up: key to Reduction [Difference]: % injury reduction: damage without minus with safener (0–100% scale); details: for HER effect + SAF / Reduction [%] / Reduction [Difference]: Final; for HER effect: no safener, Final assessment
Experimental: (§1) Seeds of crops (spring wheat, TRZAS; spring barley, HORVS; maize, ZEAMA) were placed in sandy loam soil in peat pots, covered with soil and cultivated in a greenhouse under good growth conditions. Two to three weeks after sowing, the test plants were treated at the 1 to 3-leaf stage. The herbicide/safener active compound combinations according to the invention, formulated as wettable powders or emulsion concentrates, and, in parallel tests, the correspondingly formulated individual active compounds were sprayed onto the green parts of the plants in various dosages using an amount of water of 300 l/ha (converted).
(§2) The pots were returned under good growing conditions in a glasshouse and a visual assessment of herbicidal effects was made at intervals from 1 to 3 weeks after herbicide application (DAT=days after treatment). Assessment was on a percentage basis in comparison with untreated control plants (0%=no injury, 100%=complete kill).
(§3) Reduction[Difference]=herbicide damage without safener−herbicide damage with safener Reduction[%]=(Reduction[Difference]*100)/herbicide damage without safener
b) Plant Species, Variety: ZEAMA Abraxas, Safener (SAF): Isoxadifen-Ethyl

ZEAMA Sileno [1] = assay: as above; assay type: in vivo, maize; set-up: key to Reduction [Difference]: % points: herbicide damage without safener − damage with safener; details: for HER effect + SAF / Reduction [%] / Reduction [Difference]: Final; for HER effect: no safener, Final assessment
Experimental: as §1, §2, §3
a) Plant Species, Variety: ZEAMA Sileno, Safener (SAF): Isoxadifen-Ethyl

TRZAS Triso = assay: Safener seed treatment, pre-emergence herbicide, crop damage; assay type: in vivo, spring wheat; set-up: key to Reduction [Difference]: % crop damage without safener minus % damage with safener; details: HER 15 g a.i./ha pre-emergence; for Reduction [%] / Reduction [Difference]: isoxadifen-ethyl 0.25 g a.i./kg seed; for HER effect + SAF: isoxadifen-ethyl seed treatment 0.25 g a.i./kg seed; for HER effect: no safener
Experimental: (§4) For the safener seed treatment, sufficient seeds of the respective crops (spring wheat, TRZAS; spring barley, HORVS; maize, ZEAMA) were weighed into screw top glass bottles approximately twice the volume of the seeds.
(§5) The specified safeners, formulated as wettable powder (WP) were weighed out so that the specified rates (g a.i./kg seed) would be obtained, dissolved in water (1 ml water per 10 g of seeds), and added to the seeds to produce a slurry.
(§6) The bottles were capped and then placed in an overhead shaker (set at medium speed for ca. 60 minutes) so that the seeds were evenly coated with the slurry. The bottles were uncapped and the seeds were either placed on paper and dried for an interval of 3-4 hours prior to sowing, or directly sown. Seeds were placed in sandy loam soil in pots of a diameter of 7-8 cm, and covered with soil.
(§7) Pre-emergence application of the specified herbicides was done subsequently, on two sets of plants: a) seed treatment with safener, as described above
(§8) The herbicides were formulated as WP and was sprayed onto the soil surface as an aqueous suspension at an equivalent water application rate of 300 l/ha.
(§9) After application, the test plants were kept in the greenhouse under good growth conditions. At intervals up to 4 weeks after application (=28 days after treatment; DAT), % crop damage observed on the treated plants was scored visually in comparison to control plants that had not received any safener or herbicide treatment.
(§10) Values in the table below are mean values of at least 2 replicates.
Reduction[Difference]=herbicide damage without safener−herbicide damage with safener Reduction[%]=(Reduction[Difference]*100)/herbicide damage without safener a) Plant Species, Variety: TRZAS Triso, Safener (SAF): Isoxadifen-Ethyl

ZEAMA Sileno [2] = assay: as above; assay type: in vivo, maize; set-up: key to Reduction [Difference]: % crop damage without safener minus % damage with safener; details: HER 80 g a.i./ha pre-emergence; for Reduction [%] / Reduction [Difference]: isoxadifen-ethyl 0.25 g a.i./kg seed; for HER effect + SAF: isoxadifen-ethyl seed treatment 0.25 g a.i./kg seed; for HER effect: no safener
Experimental: as §4, §5, §6, §7, §8, §9, §10
Reduction[Difference]=herbicide damage without safener−herbicide damage with safener Reduction[%]=(Reduction[Difference]*100)/herbicide damage without safener […]
c) Plant Species, Variety: ZEAMA Sileno, Safener (SAF): Isoxadifen-Ethyl

HORVS Montoya = assay: as above; assay type: in vivo, spring barley; set-up: key to Reduction [Difference]: % crop damage without safener minus % damage with safener; details: for Reduction [%] / Reduction [Difference]: isoxadifen-ethyl 0.25 g a.i./kg seed; for HER effect + SAF: isoxadifen-ethyl seed treatment 0.25 g a.i./kg seed; for HER effect: no safener
Experimental: as §4, §5, §6, §7, §8, §9, §10
Reduction[Difference]=herbicide damage without safener−herbicide damage with safener Reduction[%]=(Reduction[Difference]*100)/herbicide damage without safener b) Plant Species, Variety: HORVS Montoya, Safener (SAF): Isoxadifen-Ethyl

[3] = HER 32 g a.i./ha + isoxadifen-ethyl 100 g a.i./ha
[4] = HER 32 g a.i./ha, isoxadifen-ethyl 100 g a.i./ha
[5] = HER 8 g a.i./ha + isoxadifen-ethyl 50 g a.i./ha
[6] = HER 8 g a.i./ha, isoxadifen-ethyl 50 g a.i./ha
[7] = HER 15 g a.i./ha pre-emergence, 11 DAT (Interim)
[8] = HER 15 g a.i./ha pre-emergence, 21 DAT (Final)
[9] = HER 5 g a.i./ha pre-emergence, 21 DAT (Final)
[10] = HER 2 g a.i./ha, isoxadifen-ethyl 100 g a.i./ha

| Compound | HER effect + SAF (ZEAMA Abraxas; [3]) [%] | Reduction [%] (ZEAMA Abraxas; [4]) | Reduction [Difference] (ZEAMA Abraxas; [4]) | HER effect (ZEAMA Abraxas; HER 32 g a.i./ha) [%] | HER effect + SAF (ZEAMA Abraxas; [5]) [%] | Reduction [%] (ZEAMA Abraxas; [6]) | Reduction [Difference] (ZEAMA Abraxas; [6]) | HER effect (ZEAMA Abraxas; HER 8 g a.i./ha) [%] | further results |
| --- | --- | --- | --- | --- | --- | --- | --- | --- | --- |
| COC(=O)C1C=CC(NC(=O)C2(C(F)(F)F)CC(c3cc(C)cc(F)c3)=NO2)C1 (mixture of isomers) [Example 1.22] | 0 | 100 | 20 | 20 |  |  |  |  |  |
| CC1(C(=O)NC2C=CC(C(=O)OCCCl)C2)CC(c2cc(F)cc(F)c2)=NO1 (mixture of isomers) [Example 1.47] | 38 | 39 | 24 | 62 |  |  |  |  |  |
| C=CC1(C(=O)NC2CC=C(C(=O)OC)C2)CC(c2cc(F)cc(F)c2)=NO1 (mixture of isomers) [Example 1.60] | 57 | 39 | 37 | 94 | 20 | 64 | 35 | 55 |  |
| C=CC1(C(=O)NC2COC(C(=O)OC)C2)CC(c2cc(C)cc(F)c2)=NO1 (mixture of isomers) [Example 1.71] | 35 | 62 | 56 | 91 | 17 | 71 | 41 | 58 |  |
| CC1(C(=O)NC2COC(C(=O)OCc3cccc(F)c3)C2)CC(c2cc(F)cc(F)c2)=NO1 (mixture of isomers) [Example 1.76] |  |  |  |  | 33 | 63 | 57 | 90 |  |
| C=CC1(C(=O)NC2COC(C(=O)OCc3ccc(OC)cc3)C2)CC(c2cc(C)cc(F)c2)=NO1 (mixture of isomers) [Example 1.86] |  |  |  |  | 12 | 63 | 20 | 32 |  |
| COCCOC(=O)C1C=CC(NC(=O)C2(CCl)CC(c3cc(F)cc(F)c3)=NO2)C1 (stereo not shown) [Example 1.1] | 45 | 53 | 50 | 95 | 20 | 78 | 73 | 93 |  |
| COCCOC(=O)C1C=CC(NC(=O)C2(C)CC(c3cc(Cl)cc(C#N)c3)=NO2)C1 (stereo not shown) [Example 1.5] |  |  |  |  |  |  |  |  | HER effect + SAF (ZEAMA Sileno [1]; [5]): 18%; Reduction [%] (ZEAMA Sileno [1]; [6]): 79%; Reduction [Difference] (ZEAMA Sileno [1]; [6]): 67; HER effect (ZEAMA Sileno [1]; HER 8 g a.i./ha): 85%; HER effect + SAF (ZEAMA Sileno [1]; [3]): 47%; Reduction [%] (ZEAMA Sileno [1]; [4]): 51%; Reduction [Difference] (ZEAMA Sileno [1]; [4]): 49; HER effect (ZEAMA Sileno [1]; HER 32 g a.i./ha): 96%; Reduction [%] (TRZAS Triso; 11 DAT (Interim)): 80%; Reduction [Difference] (TRZAS Triso; 11 DAT (Interim)): 20; HER effect + SAF (TRZAS Triso; 11 DAT (Interim)): 5%; HER effect (TRZAS Triso; 11 DAT (Interim)): 25%; Reduction [%] (ZEAMA Sileno [2]; 14 DAT): 50%; Reduction [Difference] (ZEAMA Sileno [2]; 14 DAT): 30; Reduction [%] (ZEAMA Sileno [2]; 26 DAT): 56%; Reduction [Difference] (ZEAMA Sileno [2]; 26 DAT): 25; HER effect + SAF (ZEAMA Sileno [2]; 14 DAT): 30%; HER effect + SAF (ZEAMA Sileno [2]; 26 DAT): 20%; HER effect (ZEAMA Sileno [2]; 14 DAT): 60%; HER effect (ZEAMA Sileno [2]; 26 DAT): 45% |
| CSCCOC(=O)C1C=CC(NC(=O)C2(C(F)(F)F)CC(c3cc(F)cc(F)c3)=NO2)C1 (stereo not shown) [Example 1.7] |  |  |  |  |  |  |  |  | Reduction [%] (TRZAS Triso; 11 DAT (Interim)): 56%; Reduction [Difference] (TRZAS Triso; 11 DAT (Interim)): 25; HER effect + SAF (TRZAS Triso; 11 DAT (Interim)): 20%; HER effect (TRZAS Triso; 11 DAT (Interim)): 45%; Reduction [%] (HORVS Montoya; [7]): 50%; Reduction [Difference] (HORVS Montoya; [7]): 25; Reduction [%] (HORVS Montoya; [8]): 83%; Reduction [Difference] (HORVS Montoya; [8]): 25; HER effect + SAF (HORVS Montoya; [7]): 25%; HER effect + SAF (HORVS Montoya; [8]): 5%; HER effect (HORVS Montoya; [7]): 50%; HER effect (HORVS Montoya; [8]): 30% |
| CC1(C(=O)NC2C=CC(C(=O)O)C2)CC(c2cc(F)cc(F)c2)=NO1 (stereo not shown) [Example 1.36] |  |  |  |  |  |  |  |  | Reduction [%] (TRZAS Triso; 11 DAT (Interim)): 29%; Reduction [Difference] (TRZAS Triso; 11 DAT (Interim)): 20; Reduction [%] (TRZAS Triso; 21 DAT (Final)): 64%; Reduction [Difference] (TRZAS Triso; 21 DAT (Final)): 45; HER effect + SAF (TRZAS Triso; 11 DAT (Interim)): 50%; HER effect + SAF (TRZAS Triso; 21 DAT (Final)): 25%; HER effect (TRZAS Triso; 11 DAT (Interim)): 70%; HER effect (TRZAS Triso; 21 DAT (Final)): 70%; Reduction [%] (HORVS Montoya; [9]): 44%; Reduction [Difference] (HORVS Montoya; [9]): 20; HER effect + SAF (HORVS Montoya; [9]): 25%; HER effect (HORVS Montoya; [9]): 45%; Reduction [%] (HORVS Montoya; [8]): 43%; Reduction [Difference] (HORVS Montoya; [8]): 30; HER effect + SAF (HORVS Montoya; [8]): 40%; HER effect (HORVS Montoya; [8]): 70% |
| C=CC1(C(=O)NC2C=CC(C(=O)O)C2)CC(c2cc(F)cc(F)c2)=NO1 (stereo not shown) [Example 1.58] | 15 | 84 | 80 | 95 | 17 | 73 | 45 | 62 |  |
| C=CC1(C(=O)NC2C=C(C(=O)OCCOC)OC2)CC(c2cc(C)cc(F)c2)=NO1 (stereo not shown) [Example 1.89] | 17 | 62 | 28 | 45 | 3 | 90 | 27 | 30 |  |
| C=CC1(C(=O)NC2C=C(C(=O)OC)OC2)CC(c2cc(C)cc(C)c2)=NO1 (stereo not shown) [Example 1.90] |  |  |  |  |  |  |  |  | HER effect + SAF (ZEAMA Abraxas; HER 2 g a.i./ha + isoxadifen-ethyl 100 g a.i./ha): 5%; Reduction [%] (ZEAMA Abraxas; [10]): 80%; Reduction [Difference] (ZEAMA Abraxas; [10]): 20; HER effect (ZEAMA Abraxas; HER 2 g a.i./ha): 25% |
| C=CC1(C(=O)NC2C=C(C(=O)OCC#N)OC2)CC(c2cc(F)cc(F)c2)=NO1 (stereo not shown) [Example 1.91] |  |  |  |  |  |  |  |  | Reduction [%] (TRZAS Triso; 21 DAT (Final)): 75%; Reduction [Difference] (TRZAS Triso; 21 DAT (Final)): 30; HER effect + SAF (TRZAS Triso; 21 DAT (Final)): 10%; HER effect (TRZAS Triso; 21 DAT (Final)): 40% |
